Test results from patent US6635242B2, “Broad spectrum microbicidal and spermicidal compositions, devices, and methods” (The Pennsylvania State University, priority 1998, dated 2003).

Legend:
[1] = tested on: BPV-1; assay: BPV-1 focus assay in C127 mouse cells; format: cell-based, bovine papillomavirus; conditions: bovine papillomavirus
Procedure: Cell-free stocks of BPV-1 were prepared by extraction (10% w/v) of epidermal bovine warts in phosphate buffered saline (PBS). In order to detect the transforming ability of BPV-1, C127 mouse cells were seeded (3×10^5 cells per flask) into T-25^2 flasks. After 24 hr of growth, subconfluent cells were infected with BPV-1. For the positive controls, stock virus (20 μl) was diluted (1:1) with PBS, incubated at 37° C. for 10 min, diluted […] and then added (100 μl ) into the 5 ml of cell culture medium present on the cells. Cells were refed at 24 hours and subsequently 2 times weekly. The presence of morphologically transformed foci was counted after 2 weeks and then again at 3 weeks.
Virus inactivations were carried out in vitro by addition of concentrated SDS solutions to the virus stocks (20 μl of virus plus 20 μl of detergent) and subsequent incubation at 37° C. for 10 or 30 min as indicated. Following inactivation, virus was diluted 1000 fold to lower the detergent concentration and the preparations were immediately used for infection as above.
Although SDS could effectively reduce HSV-2 infectivity, it remained possible that this destruction was mediated by envelope removal. Because papillomaviruses are non-enveloped, the possibility remained that SDS would fail to inactivate these viruses. We utilized BPV-1 as a prototype PV because of its ability to rapidly (within 2 weeks) form multi-layered transformed foci in mouse fibroblasts in an in vitro assay. Table 3 describes results of two separate experiments in which stocks of BPV-1 were incubated at 37° C. with various concentrations of SDS (5% to 5×10^−4%) for either 10 or 30 minutes, diluted to lower the SDS concentration (to avoid cell toxicity) and then used to infect C127 cells. […] Table 4 lists several other commercially available detergents that were tested for possible inactivation of BPV-1. None of these detergents inactivated the morphologic transforming properties of the BPV-1.

[2] = tested on: CRPV; format: in vivo, cottontail rabbit papillomavirus; conditions: 10^−2 dilution of CRPV stock, 0.05% N-9, 37° C. 10 min; 10 sites each, 3-6 weeks
[3] = tested on: lymphocyte-, macrophage- and dual-tropic strains of HIV-1 (IIIB, BaL, 89.6); assay: Cell-free HIV-1 inactivation (FIG. 5); format: cell-based, human immunodeficiency virus; conditions: HCLB or P4-R5 indicator cells
Procedure: Cell-free HIV-1 strain IIIB (A) was treated with N-9, C31G, or SDS, and used to infect HCLB cells. Cell-free HIV-1 strains BaL (M tropic) (B) and 89.6 (dual tropic) (C) were treated with N-9, C31G or SDS,and used to infect P4-R5 cells. Assays were conducted. Infectivity following exposure is expressed as a percentage relative to the number of β-gal-positive cells in duplicate wells infected with virus incubated in the absence of a microbicidal compound. Results shown in FIG. 5 are the average cell counts for a total of four wells per concentration in two independent experiments.

[4] = tested on: HIV-1-infected SupT1 cells; assay: Cell-associated HIV-1 infectivity (FIG. 6); format: cell-based, human immunodeficiency virus; conditions: 10 min at 37° C., co-culture with HCLB cells, FIG. 6(a)
Procedure: (A) SupT1 T lymphocytes (8×10^4)infected 5 days prior with HIV-1 strain IIIB were pelleted and resuspended in new media to remove cell-free virus. After exposure to selected concentrations of each microbicide for 10 min at 37° C., the cells were diluted 1:10 and co-cultured with HCLB cells for 2 h. Following one wash with PBS to remove the infected lymphocytes, the indicator cells were cultured and assayed. Infectivity following exposure is expressed as a percentage relative to the number of β-gal-positive cells in duplicate wells infected with HIV-1 infected SupT1 cells incubated in the absence of a microbicidal compound. Results shown in FIG. 6(a) are the average cell counts for a total of four wells per concentration in two independent experiments. (B) SupT1 T lymphocytes (8×10^4) were incubated with selected concentrations of each microbicide for 10 min at 37° C., and then diluted 1:10 with new media. Following a 2 h incubation period, the cells were assessed for viability. Cell survival after treatment is expressed as the fraction of viable cells relative to the number of mock-exposed cells. Results shown in FIG. 6(b) are the average of two experiments in which triplicate wells for each concentration were assayed.

[5] = tested on: Bovine sperm; assay: Bovine sperm motility following detergent addition; format: cell-based; design: key to Bovine Sperm Motility Following Detergent Addition: +++: Vigorous swimming; ++/−: Many swimmers/some dead; +/−: Occasional swimmer/most dead; −: All dead
Source text: The following data represent an in vitro experiment to test the efficacy of SDS and other detergents as spermicidal agents. Frozen samples of bull semen were obtained, thawed and placed in a test tube. Aliquots were taken out and put in a separate test tube where they were mixed with detergent (SDS, C31G, N-9 or a mixture of SDS and N-9) to a final percent as listed in Tables 8 and 9 below. After mixing, the samples were immediately placed on a microscope slide and visually examined for sperm movement. The experiment was conducted one sample at a time so that the visual examination was conducted immediately after addition of detergent to the sample. As a result, indications in the table of complete inactivation indicate virtually instantaneous inactivation of the sperm. […] Occasional swimmers means very few, on the order of approximately 1% of the population of sperm present in the sample, indicating approximately 99% of the sperm were inactivated by the detergent.

`CCCCCCCCCCCCOS(=O)(=O)[O-].[Li+]` [LDS, lithium dodecyl sulfate] was tested, and the “anti-papillomavirus activity in the C127 focus assay” value (shortened to “anti-papillomavirus activity”) [1] was “have anti-papillomavirus activity”.

In the case of Nonoxynol-9 [N-9, reference compound], the “growth of papillomas (GMD) from treated versus normal CRPV (FIG. 2b)” value [2] was “not a difference in the growth of the lesions”, the “inactivation of cell-free HIV-1 strains IIIB, BaL and 89.6 (infectivity, β-gal-positive cells)” value [3] was “inactivated” and the “cell-associated infectivity of HIV-1-infected SupT1 cells” value [4] was “can reduce the cell-associated infectivity”. The “Bovine Sperm Motility Following Detergent Addition” value ([5]; Table 8, 0.0125% detergent) was “+++”, the “Bovine Sperm Motility Following Detergent Addition” value ([5]; Table 8, 0.025% detergent) was “−” and the “Bovine Sperm Motility Following Detergent Addition” value ([5]; Table 8, 0.5% detergent) was “−”. For the same compound, the “Bovine Sperm Motility Following Detergent Addition” value ([5]; Table 8, 1% detergent) was “−”, the “Bovine Sperm Motility Following Detergent Addition” value ([5]; Table 8, 2% detergent) was “−” and the “Bovine Sperm Motility Following Detergent Addition” value ([5]; Table 9, 0.125% detergent) was “+++”. The “Bovine Sperm Motility Following Detergent Addition” value ([5]; Table 9, 0.25% detergent) was “+++”, the “Bovine Sperm Motility Following Detergent Addition” value ([5]; Table 9, 0.5% detergent) was “+++” and the “Bovine Sperm Motility Following Detergent Addition” value ([5]; Table 9, 1% detergent) was “++/−”. For the same compound, the “Bovine Sperm Motility Following Detergent Addition” value ([5]; Table 9, 2% detergent) was “−”.

With `CCCCCCCCCCCC(=O)[O-].[Na+]` [NA+ Lauric Acid, sodium salt of lauric acid] the “anti-papillomavirus activity” value [1] was “have anti-papillomavirus activity”.

With `CCCCCCCCCCCC(=O)O` [Lauric Acid, lauric acid] the “anti-papillomavirus activity” value [1] was “have anti-papillomavirus activity”.
